Assays:
[1] = tested on: Rabbit Psoas myofibrils (skeletal myosin ATPase); assay: Myofibril ATPase assay, rabbit psoas (skeletal) myofibrils; assay type: biochemical; details: rabbit psoas myofibrils
Outline: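 Myofibrils homogenized in Triton X-100 buffer were assayed in pH 7.0 PIPES with defined Ca2+/EGTA. Myosin-driven ADP formation was coupled to NADH oxidation, with depletion monitored at 340 nm. Each value is the concentration that lowers activity to 75% of vehicle or, for activators, raises it to 125%.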

[2] = target: T1, Porcine ventricle myofibrils (ventricular myosin ATPase) (Sus scrofa, UniProt P79293); assay: Myofibril ATPase assay, porcine ventricle myofibrils; assay type: biochemical, porcine (Yucatan minipigs); details: porcine ventricle myofibrils
T1 construct: Myofibrils from porcine cardiac muscle was isolated from the left ventricle of Yucatan minipigs; tissue Exemplar Genetics; host or cells: left ventricle of Yucatan minipigs, myofibrils prepared in house
T1 sequence (P79293 whole entry): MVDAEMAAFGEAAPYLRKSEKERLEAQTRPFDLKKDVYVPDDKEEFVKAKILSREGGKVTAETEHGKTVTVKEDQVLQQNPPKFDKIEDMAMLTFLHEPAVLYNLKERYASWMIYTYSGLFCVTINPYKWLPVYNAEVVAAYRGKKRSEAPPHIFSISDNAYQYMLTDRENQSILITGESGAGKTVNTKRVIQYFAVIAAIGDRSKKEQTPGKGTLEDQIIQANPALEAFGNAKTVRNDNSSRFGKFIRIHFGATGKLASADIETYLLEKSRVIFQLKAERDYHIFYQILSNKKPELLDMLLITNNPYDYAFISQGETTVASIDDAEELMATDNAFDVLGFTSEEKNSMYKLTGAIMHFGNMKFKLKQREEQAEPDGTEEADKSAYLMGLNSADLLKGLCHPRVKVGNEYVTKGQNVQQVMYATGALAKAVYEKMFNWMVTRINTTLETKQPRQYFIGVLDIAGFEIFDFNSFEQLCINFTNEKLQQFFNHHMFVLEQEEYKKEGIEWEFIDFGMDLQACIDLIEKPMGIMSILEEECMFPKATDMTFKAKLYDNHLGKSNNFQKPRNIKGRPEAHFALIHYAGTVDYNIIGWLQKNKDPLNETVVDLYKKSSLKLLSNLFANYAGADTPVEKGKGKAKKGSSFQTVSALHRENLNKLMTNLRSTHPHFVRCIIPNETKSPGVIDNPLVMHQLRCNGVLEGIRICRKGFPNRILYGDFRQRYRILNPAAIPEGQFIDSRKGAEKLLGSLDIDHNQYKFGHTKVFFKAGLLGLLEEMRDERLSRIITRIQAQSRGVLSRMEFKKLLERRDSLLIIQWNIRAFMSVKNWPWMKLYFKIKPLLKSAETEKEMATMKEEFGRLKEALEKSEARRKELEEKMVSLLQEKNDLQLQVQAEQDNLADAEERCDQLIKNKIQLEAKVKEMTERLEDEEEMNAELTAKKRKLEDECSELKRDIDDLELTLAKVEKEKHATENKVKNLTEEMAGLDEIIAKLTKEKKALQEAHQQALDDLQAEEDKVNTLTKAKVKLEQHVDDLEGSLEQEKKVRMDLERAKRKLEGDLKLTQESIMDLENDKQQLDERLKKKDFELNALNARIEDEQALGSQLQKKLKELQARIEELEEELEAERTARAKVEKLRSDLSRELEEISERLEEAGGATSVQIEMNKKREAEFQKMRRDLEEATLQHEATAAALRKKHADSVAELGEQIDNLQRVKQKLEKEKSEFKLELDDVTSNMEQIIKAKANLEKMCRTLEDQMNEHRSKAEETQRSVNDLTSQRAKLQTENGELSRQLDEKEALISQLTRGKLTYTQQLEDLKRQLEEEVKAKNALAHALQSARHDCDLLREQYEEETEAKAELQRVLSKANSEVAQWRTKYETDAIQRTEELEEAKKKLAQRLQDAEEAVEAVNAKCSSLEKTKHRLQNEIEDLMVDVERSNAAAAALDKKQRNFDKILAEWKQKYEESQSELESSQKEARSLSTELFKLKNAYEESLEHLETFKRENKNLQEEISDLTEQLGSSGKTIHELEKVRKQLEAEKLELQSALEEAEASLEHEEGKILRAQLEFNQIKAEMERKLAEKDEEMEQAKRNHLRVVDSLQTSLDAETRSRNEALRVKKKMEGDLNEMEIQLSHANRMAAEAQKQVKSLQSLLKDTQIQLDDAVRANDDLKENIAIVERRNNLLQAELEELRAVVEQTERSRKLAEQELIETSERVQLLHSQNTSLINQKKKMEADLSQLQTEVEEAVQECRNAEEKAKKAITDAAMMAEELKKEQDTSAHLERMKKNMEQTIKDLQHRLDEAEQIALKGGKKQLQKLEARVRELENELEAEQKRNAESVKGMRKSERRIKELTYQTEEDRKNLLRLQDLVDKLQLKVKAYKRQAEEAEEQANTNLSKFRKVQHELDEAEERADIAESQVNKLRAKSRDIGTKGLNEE
Outline: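 Test compounds acted on myofibrils isolated from the left ventricle of Yucatan minipigs. ADP formation was coupled via pyruvate kinase/lactate dehydrogenase to NADH oxidation, monitored kinetically at 340 nm over 75 min. Rates relative to vehicle were fitted with a 4-parameter logistic model, reported as Y75 (25% inhibition) or Y125 (activation) concentrations.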

[3] = tested on: Porcine atria myofibrils (atrial myosin ATPase); assay: Myofibril ATPase assay, porcine atria myofibrils; assay type: biochemical; details: porcine atria myofibrils
Outline: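 Values are Y75 (concentration cutting ATPase activity to 75% of vehicle) or Y125 (raising it to 125%), taken from 4-parameter logistic fits. Rates come from NADH disappearance at 340 nm in a PK/LDH-coupled assay with porcine atria myofibrils.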

[4] = ‡ Y125 value, not a Y75 value (125% activity relative to no compound)

| Skeletal EC25 ([1]; Y75 value (no ‡ mark)) | Ventricular EC25 ([2]; Y75 value (no ‡ mark)) | Atrial EC25 ([3]; Y75 value (no ‡ mark)) | Atrial EC25 [3, 4] | Ventricular EC25 [2, 4] | Skeletal EC25 [1, 4] | SMILES |
| --- | --- | --- | --- | --- | --- | --- |
| 0.06 µM | 0.29 µM | 0.11 µM |  |  |  | Cc1c(CC(=O)N[C@@H](C)c2ncc(C#N)cn2)c(=O)[nH]c2ccc(F)c(Cl)c12 (single isomer, unassigned) [compound 2056] |
| 0.27 µM | 0.94 µM | 0.65 µM |  |  |  | Cc1c(CC(=O)N[C@H](C)c2ccc(C#N)nn2)c(=O)[nH]c2ccc(F)c(C3CC3)c12 (single isomer, unassigned) [compound 2057] |
| 3.15 µM | 68.08 µM | 100.00 µM |  |  |  | Cc1c(CC(=O)N[C@@H](C)c2ccc(C#N)nn2)c(=O)[nH]c2ccc(F)c(C3CC3)c12 (single isomer, unassigned) [compound 2058] |
| 1.09 µM | 56.97 µM |  | 100.00‡ μM |  |  | Cc1c(CC(=O)N[C@H](C)c2ncc(C#N)cn2)c(=O)[nH]c2ccc(F)c(C3CC3)c12 (single isomer, unassigned) [compound 2059] |
| 0.26 µM | 3.02 µM | 0.45 µM |  |  |  | Cc1c(CC(=O)N[C@@H](C)c2ncc(C#N)cn2)c(=O)[nH]c2ccc(F)c(C3CC3)c12 (single isomer, unassigned) [compound 2060] |
| 0.50 µM | 100.00 µM | 0.21 µM |  |  |  | C[C@@H](NC(=O)Cc1c(C2CC2)c2cc(F)ccc2[nH]c1=O)c1ncc(C#N)cn1 (single isomer, unassigned) [compound 2063] |
| 0.26 µM | 32.11 µM | 77.71 µM |  |  |  | C[C@H](NC(=O)Cc1c(C2CC2)c2cc(F)ccc2[nH]c1=O)c1ncc(C#N)cn1 (single isomer, unassigned) [compound 2064] |
| 1.10 µM | 100.00 µM | 100.00 µM |  |  |  | C[C@@H](NC(=O)Cc1c(C2CC2)c2c(F)c(F)ccc2[nH]c1=O)c1ccc(C#N)nn1 (single isomer, unassigned) [compound 2065] |
| 0.15 µM | 7.88 µM | 1.06 µM |  |  |  | C[C@H](NC(=O)Cc1c(C2CC2)c2c(F)c(F)ccc2[nH]c1=O)c1ccc(C#N)nn1 (single isomer, unassigned) [compound 2066] |
| 0.49 µM | 2.76 µM | 0.04 µM |  |  |  | Cc1c(CC(=O)N[C@H](C)c2ncc(C#N)cn2)c(=O)[nH]c2cccc(C#N)c12 (single isomer, unassigned) [compound 2069] |
| 0.35 µM | 11.13 µM | 0.68 µM |  |  |  | C[C@H](NC(=O)Cc1cc2c(F)c(F)ccc2[nH]c1=O)c1ncc(C#N)cn1 (single isomer, unassigned) [compound 2072] |
| 4.03 µM | 10.13 µM | 9.01 µM |  |  |  | Cc1c(CC(=O)N[C@H](C)c2cnc(C#N)nc2)c(=O)[nH]c2cc(F)c(F)cc12 (single isomer, unassigned) [compound 2074] |
| 0.04 µM | 0.52 µM | 0.07 µM |  |  |  | Cc1c(CC(=O)N[C@@H](C)c2cnc(C#N)nc2)c(=O)[nH]c2cc(F)c(F)cc12 (single isomer, unassigned) [compound 2075] |
| 2.56 µM | 46.49 µM | 100.00 µM |  |  |  | Cc1cc([C@@H](C)NC(=O)Cc2c(C)c3c(C)c(F)ccc3[nH]c2=O)ncc1F (single isomer, unassigned) [compound 2076] |
| 0.29 µM | 100.00 µM | 1.50 µM |  |  |  | Cc1cc([C@H](C)NC(=O)Cc2c(C)c3c(C)c(F)ccc3[nH]c2=O)ncc1F (single isomer, unassigned) [compound 2077] |
| 0.03 µM | 0.07 µM | 0.13 µM |  |  |  | Cc1nc(C#N)ccc1[C@H](C)NC(=O)Cc1c(C)c2c(C)c(F)ccc2[nH]c1=O (single isomer, unassigned) [compound 2079] |
| 0.15 µM | 0.45 µM | 0.17 µM |  |  |  | Cc1c(C(F)(F)C(=O)N[C@H](C)c2ncc(C#N)cc2F)c(=O)[nH]c2cccc(C#N)c12 (single isomer, unassigned) [compound 2501] |
| 0.03 µM | 0.20 µM | 0.09 µM |  |  |  | Cc1c(C(F)(F)C(=O)N[C@@H](C)c2ncc(C#N)cc2F)c(=O)[nH]c2cccc(C#N)c12 (single isomer, unassigned) [compound 2502] |
| 100.00 µM | 100.00 µM | 100.00 µM |  |  |  | Cc1c(C2(C(=O)N[C@@H]3CCc4cc(C#N)cnc43)CC2)c(=O)[nH]c2ccc(F)cc12 (single isomer, unassigned) [compound 2503] |
| 100.00 µM | 100.00 µM | 100.00 µM |  |  |  | Cc1c(C2(C(=O)N[C@H]3CCc4cc(C#N)cnc43)CC2)c(=O)[nH]c2ccc(F)cc12 (single isomer, unassigned) [compound 2504] |
| 100.00 µM | 100.00 µM | 100.00 µM |  |  |  | C[C@@H](NC(=O)C1(c2cc3c(F)c(F)ccc3[nH]c2=O)CC1)c1nccc(C#N)n1 (single isomer, unassigned) [compound 2505] |
| 100.00 µM | 100.00 µM | 100.00 µM |  |  |  | C[C@H](NC(=O)C1(c2cc3c(F)c(F)ccc3[nH]c2=O)CC1)c1nccc(C#N)n1 (single isomer, unassigned) [compound 2506] |
| 19.51 µM | 100.00 µM | 4.10 µM |  |  |  | C[C@@H](NC(=O)C1(c2cc3cc(F)ccc3[nH]c2=O)CC1)c1nccc(C#N)n1 (single isomer, unassigned) [compound 2507] |
| 5.03 µM |  | 100.00 µM |  | 70.50‡ μM |  | C[C@H](NC(=O)C1(c2cc3cc(F)ccc3[nH]c2=O)CC1)c1nccc(C#N)n1 (single isomer, unassigned) [compound 2508] |
|  |  |  | 100.00‡ μM | 77.92‡ μM | 94.41‡ μM | Cc1c(C2(C(=O)N[C@H](C)c3nccc(C#N)n3)CC2)c(=O)[nH]c2ccc(F)c(F)c12 (single isomer, unassigned) [compound 2509] |
|  |  | 7.78 µM |  | 77.57‡ μM | 85.63‡ μM | Cc1c(C2(C(=O)N[C@@H](C)c3nccc(C#N)n3)CC2)c(=O)[nH]c2ccc(F)c(F)c12 (single isomer, unassigned) [compound 2510] |
|  | 33.47 µM | 1.53 µM |  |  | 100.00‡ μM | Cc1c(F)ccc2[nH]c(=O)c(C(F)(F)C(=O)N[C@@H](C)c3ncc(C#N)cn3)c(C#N)c12 (single isomer, unassigned) [compound 2512] |
| 100.00 µM | 100.00 µM | 5.06 µM |  |  |  | Cc1c(C(F)(F)C(=O)N[C@@H]2CCc3cc(C#N)cnc32)c(=O)[nH]c2ccc(F)cc12 (single isomer, unassigned) [compound 2515] |

Source: patent US12448369B2 (Edgewise Therapeutics, Inc., priority 2023, dated 2025)
